Experimental data published in patent publication US20250064990A1, “METHODS OF SCREENING FOR VMAT2 INHIBITORS” (Neurocrine Biosciences, Inc., priority 2021, published 2025).
Several values for one entry are separate records, joined by “and”; a condition that tells them apart may be missing. Equal values may be shown once. Read-outs that look alike come from different tables or passages of the source. One block for each compound: values may come before it.

Assays:
[1] = Adverse events in healthy volunteers receiving valbenazine; format: in vivo, human; conditions: 40-160 mg valbenazine
Procedure: Interim imaging and tolerability data in an ongoing study were collected and analyzed in cohorts of 2-4 healthy volunteers. For each scan, participants received an injection of the D2/D3 dopamine receptor agonist radioligand [^11C](+)4-propyl-3,4,4a,5,6,10b-hexahydro-2H-naphtho[1,2-b][1,4]oxazin-9-ol ([^11C]-PHNO), followed by 90 min of data acquisition using Siemens Biograph PET/CT. For post-valbenazine scans, participants received an oral dose of valbenazine 6-8 hours before the administration of [^11C]-PHNO, with PET imaging occurring around the time of maximal valbenazine plasma concentration. The binding potential relative to the non-displaceable binding (BPND) in the putamen, caudate, and ventral striatum, was used as the primary endpoint. The cerebellum was used as the reference region to estimate the regional BPND. Decreases in synaptic dopamine following valbenazine administration corresponded to an increase in [^11C]-PHNO BPND relative to baseline (ΔBPND). Plasma concentrations of valbenazine and (+)-α-dTBZ (dihydrotetrabenazine), the active metabolite of valbenazine, were measured at the start and end of each post-valbenazine PET scan. The mean plasma (+)-α-dTBZ concentration (Cave) was matched to the ΔBPND for each participant to provide an exposure-response curve.

VMAT2 [2] = target: T1, VMAT2 (Homo sapiens, UniProt Q05940); test: Estimated VMAT2 target occupancy in humans for valbenazine from NHP PET free EC50 and human PK; format: in vivo; parameters: The free EC50 derived from NHP PET was then used to estimate % TO in humans; from tissue; host or cells: human brain in vivo (modelled, not imaged)
T1 sequence (Q05940 whole entry): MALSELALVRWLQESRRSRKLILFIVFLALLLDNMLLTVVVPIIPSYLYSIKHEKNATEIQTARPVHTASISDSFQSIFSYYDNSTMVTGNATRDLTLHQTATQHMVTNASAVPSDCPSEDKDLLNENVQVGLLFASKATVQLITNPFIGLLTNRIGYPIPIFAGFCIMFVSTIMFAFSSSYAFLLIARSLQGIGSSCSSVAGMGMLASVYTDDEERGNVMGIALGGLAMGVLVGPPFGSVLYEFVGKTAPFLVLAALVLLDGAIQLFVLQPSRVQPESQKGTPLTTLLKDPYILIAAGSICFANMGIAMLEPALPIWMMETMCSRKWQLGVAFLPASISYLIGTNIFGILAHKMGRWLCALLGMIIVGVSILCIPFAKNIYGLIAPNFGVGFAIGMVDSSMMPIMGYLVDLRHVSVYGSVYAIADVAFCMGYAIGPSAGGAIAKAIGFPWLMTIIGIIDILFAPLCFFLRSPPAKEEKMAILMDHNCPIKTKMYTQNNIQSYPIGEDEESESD

synaptic dopamine = test: Valbenazine effects on the dopamine system, [^11C]-PHNO PET; format: in vivo, human; conditions: 40-160 mg oral valbenazine, healthy volunteers, interim analysis, eight participants
Excerpt: By way of example only, in some embodiments, “synaptic dopamine” can be measured non-invasively as follows. Subjects receive an oral dose of a VMAT2 inhibitor before administration of [^11C]-PHNO, with PET imaging occurring around the time of maximal VMAT2 inhibitor plasma concentration. The binding potential relative to the non-displaceable binding (BPND) in the putamen, caudate, and ventral striatum, is used as the primary endpoint. The cerebellum is used as the reference region to estimate the regional BPND. The measured increases in [^11C]-PHNO BPND relative to baseline (ΔBPND) correspond to decreases in synaptic dopamine following VMAT2 inhibitor administration. Other radioligands can be used. Alternatively, in some embodiments, indirect measurements of synaptic dopamine can be achieved via invasive techniques such as methods described in Huang M., et al., Pharmacology, Biochemistry and Behavior 190 (2020) 172872; and Bosche S. L., et al., Frontiers in Neuroscience, November 2021|Volume 15|Article 728092.
Interim imaging and tolerability data in an ongoing study were collected and analyzed in cohorts of 2-4 healthy volunteers. […] Plasma concentrations of valbenazine and (+)-α-dTBZ (dihydrotetrabenazine), the active metabolite of valbenazine, were measured at the start and end of each post-valbenazine PET scan. […]

VMAT2 [3] = test: Estimated VMAT2 target occupancy and clinical observations in cynomolgus monkey; format: in vivo; conditions: ~30 min to 1 h post-dosing, at estimated 96%-98% VMAT2 target occupancy
Excerpt: As described below, there were adverse events at these doses, enabling a benchmarking of % TO values that could lead to adverse events.

VMAT2 [4] = target: T1, VMAT2; conditions: Freeby et al., Mol. Imaging Biol. 2016; cited from earlier work
[5] = NBI-98782 concentration in cynomolgus monkey plasma by LC-MS/MS; format: in vivo, cynomolgus monkeys (Macaca fascicularis)
Procedure: During each scan, whole blood PK samples were collected (in K2 EDTA tubes) at pre-dose (−5 min), and post-dose at 4 (approximately 1 min after completion of bolus), 30, 60 (just prior to [^18F]AV-133 radiopharmaceutical administration), 90, 120, 150, 180 (end of scan) minutes after test article administration. PK samples were approximately 1 mL each (8 mL total, including pre-dose sample).
Plasma samples were processed using liquid-liquid extraction with the additional of a stable isotopic labeled internal standard ^13C-83198. Processed samples were chromatographically separated on a C18 reversed phase column and coupled to a Sciex API 4000 triple quadrupole mass spectrometer for detection.
Quantitation was performed using a weighted 1/×2 linear least squares regression analysis generated from calibration standards prepared on the day of extraction. The liquid-liquid extraction began with the addition of internal standard solution (10.0 μL of approximately 400 ng/mL of [^13C]-radiolabeled [^13C]-NBI-98854 (i.e., [^13C]-valbenazine) and [^13C]-NBI-83198 (a racemic mixture of two dihydrotetrabenazine enantiomers). After adding 50.0 μL of sodium carbonate solution (0.2 M) and 2.00 mL of methyl tert-butyl ether to all samples, the tubes were sealed, vortexed, and centrifuged. Subsequently, the organic layer was transferred to clean tubes and evaporated to dryness. The samples were then reconstituted with 150 μL of reconstitution solution (water/methanol/acetic acid; 80:20:0.2), sealed, vortexed, sonicated and centrifuged. The reconstituted extract was then transferred into a 96-well plate. […] A triple quadrupole mass spectrometer (Sciex API 4000) equipped with TurboIonSpray source was used in the positive ion mode.

VMAT2 [6] = target: VMAT2 (Macaca fascicularis, UniProt A0A2K5UVB8); test: VMAT2 occupancy in NHP brain after i.v. NBI-98782, [^18F]AV-133 PET; format: in vivo, cynomolgus monkeys (Macaca fascicularis); conditions: cynomolgus monkey
Sequence of VMAT2 (Macaca fascicularis, UniProt A0A2K5UVB8) (A0A2K5UVB8 entry or part of it): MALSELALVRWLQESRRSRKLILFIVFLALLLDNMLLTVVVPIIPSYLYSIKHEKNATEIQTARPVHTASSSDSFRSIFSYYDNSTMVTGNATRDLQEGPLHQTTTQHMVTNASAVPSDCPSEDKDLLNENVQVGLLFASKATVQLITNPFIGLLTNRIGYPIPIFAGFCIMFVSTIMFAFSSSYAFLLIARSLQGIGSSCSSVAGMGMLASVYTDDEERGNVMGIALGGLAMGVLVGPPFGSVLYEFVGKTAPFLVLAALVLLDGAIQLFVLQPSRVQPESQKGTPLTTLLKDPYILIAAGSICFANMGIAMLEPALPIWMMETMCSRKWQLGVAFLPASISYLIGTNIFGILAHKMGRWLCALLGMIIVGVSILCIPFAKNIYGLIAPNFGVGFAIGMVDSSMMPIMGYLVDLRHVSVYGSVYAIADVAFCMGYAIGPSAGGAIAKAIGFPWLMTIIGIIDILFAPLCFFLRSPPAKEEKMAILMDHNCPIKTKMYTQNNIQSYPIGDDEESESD
Excerpt: A radioligand, [^18F]AV-133, has been used to image and quantify brain VMAT2 in vivo.
Two female non-naïve cynomolgus monkeys (Macaca fascicularis) were used in this study. The animals were judged to be in good health before the start of the study. At study origination, animals A7701 (Tag ID A5028) and A7702 (Tag ID A5029) were 4.45 kg/4 years 11 months and 4.75 kg/3 years 10 months, respectively.
Dynamic data were acquired in the MicroPET Focus-220 camera (Siemens Microsystems, Knoxville, TN). Emission data were collected for 120 min post-injection and reconstructed into a series of 33 frames and all standard corrections were applied: normalization, random, scatter and attenuation (via CT scan). Dynamic brain PET images were transferred and analyzed using the image processing PMOD software package v3.802 (PMOD Technologies, Zurich, Switzerland). The PET images were rigidly aligned to a previously acquired animal's brain T1 MRI and then spatially normalized to a common cynomolgus MRI template for anatomical brain region definition.
Volumes of interest (VOIs) defined in the cynomolgus template space (see e.g., Ballanger et al. Neuroimage, 2013, 77:26-43) were applied to the spatially normalized PET images to compute time-activity curves (TACs, kBq/cm^3) for caudate (0.96 cm^3), putamen (1.34 cm^3) and occipital (8.61 cm^3). TACs and images (averaged between 90-120 min) were presented in Standard Uptake Value (SUV) units (g/mL) normalized by the weight of the animal and the injected dose
Non-invasive Logan graphical analysis (start time of fit, t*=30 min) was used to estimate regional non-displaceable binding potential (BPND) using the TACs in the caudate and putamen, with the cerebellar cortex as the reference TAC. […] Target occupancy was calculated according to the Equation 2-1.
where h is the Hill slope (h=1.0) and C is the mean of observed plasma concentrations during the scanning interval (60 to 180 minutes post-dose).

estimated VMAT2 occupancy maintained throughout each 24-hour period (VMAT2 [2]; doses clinically effective in tardive dyskinesia): ≥ 73%
receptor occupancy at 40 mg (VMAT2 [2]; valbenazine 40 mg once-daily, read-out: estimated target occupancy for Cave): ~80%
Compound: COc1cc2c(cc1OC)[C@H]1C[C@@H](OC(=O)[C@@H](N)C(C)C)[C@H](CC(C)C)CN1CC2 [valbenazine, (S)-2-amino-3-methyl-butyric acid (2R, 3R,11bR)-3-isobutyl-9,10-dimethoxy-1,3,4,6,7,11b-hexahydro-2H-pyrido[2,1-a]isoquinolin-2-yl ester]
Adverse events [1]: consistent with the known safety and tolerability profile of valbenazine
increase in [^11C]-PHNO ΔBPND (synaptic dopamine): 21-44% and 20-40%
clinical observations (VMAT2 [3]): partially closed eyes (ptosis) (in all monkeys), decreased activity (in ⅔ monkeys), and salivation (in 1 monkey)

Compound: COc1cc2c(cc1OCCC[18F])CCN1C[C@@H](CC(C)C)[C@H](O)C[C@H]21 [[^18F]AV-133]
Test-retest for BPND (VMAT2 [4]): 9.4%

Compound: COc1cc2c(cc1OC)[C@H]1C[C@@H](O)[C@H](CC(C)C)CN1CC2 [NBI-98782, (2R, 3R,11bR)-3-isobutyl-9,10-dimethoxy-1,3,4,6,7,11b-hexahydro-2H-pyrido[2,1-a]isoquinolin-2-ol]
Mean ng/mL NBI-98782 Concentration during PET Scan (60-180 min) ([5]; A7701, total mass dose 0.04 mg/kg i.v.): 2.9 ng/mL
Mean ng/mL NBI-98782 Concentration during PET Scan (60-180 min) ([5]; A7701, total mass dose 0.5 mg/kg i.v.): 44.5 ng/mL
Mean ng/mL NBI-98782 Concentration during PET Scan (60-180 min) ([5]; A7702, total mass dose 0.016 mg/kg i.v.): 1.7 ng/mL
Mean ng/mL NBI-98782 Concentration during PET Scan (60-180 min) ([5]; A7702, total mass dose 0.13 mg/kg i.v.): 14.9 ng/mL
receptor occupancy at 0.04 mg/kg (VMAT2 [6]; iv, read-out: % Occ, animal A7701, Caudate, 0.04 mg/kg): 59.1%
receptor occupancy at 0.13 mg/kg (VMAT2 [6]; iv, read-out: % Occ, animal A7701, Caudate, 0.13 mg/kg): 67.9%
receptor occupancy at 0.5 mg/kg (VMAT2 [6]; iv, read-out: % Occ, animal A7701, Caudate, 0.5 mg/kg): 89.4%
receptor occupancy at 0.04 mg/kg (VMAT2 [6]; iv, read-out: % Occ, animal A7701, Putamen, 0.04 mg/kg): 55.2%
receptor occupancy at 0.13 mg/kg (VMAT2 [6]; iv, read-out: % Occ, animal A7701, Putamen, 0.13 mg/kg): 70.8%
receptor occupancy at 0.5 mg/kg (VMAT2 [6]; iv, read-out: % Occ, animal A7701, Putamen, 0.5 mg/kg): 89.6%
receptor occupancy at 0.016 mg/kg (VMAT2 [6]; iv, read-out: % Occ, animal A7702, Caudate, 0.016 mg/kg): 18.7%
receptor occupancy at 0.016 mg/kg (VMAT2 [6]; iv, read-out: % Occ, animal A7702, Putamen, 0.016 mg/kg): 18.3%
receptor occupancy at 0.13 mg/kg (VMAT2 [6]; iv, read-out: Occ, animal A7702, Caudate, 0.13 mg/kg): 77.5%
receptor occupancy at 0.13 mg/kg (VMAT2 [6]; iv, read-out: Occ, animal A7702, Putamen, 0.13 mg/kg): 79.1%
receptor occupancy at 0.04 mg/kg (VMAT2 [6]; read-out: Target Occupancy, Mean of Putamen and Caudate, A7701, total mass dose 0.04 mg/kg): 57%
receptor occupancy at 0.13 mg/kg (VMAT2 [6]; read-out: Target Occupancy, Mean of Putamen and Caudate, A7701, total mass dose 0.13 mg/kg): 69%
receptor occupancy at 0.5 mg/kg (VMAT2 [6]; read-out: Target Occupancy, Mean of Putamen and Caudate, A7701, total mass dose 0.5 mg/kg): 90%
receptor occupancy at 0.016 mg/kg (VMAT2 [6]; read-out: Target Occupancy, Mean of Putamen and Caudate, A7702, total mass dose 0.016 mg/kg): 19%
receptor occupancy at 0.13 mg/kg (VMAT2 [6]; read-out: Target Occupancy, Mean of Putamen and Caudate, A7702, total mass dose 0.13 mg/kg): 78%
